In brackets after ≈: the same amount, converted by molar mass. Counter-ions that a name gives are not always drawn. Like-named read-outs stand apart in the source and are kept apart here.
Experiments:
[1] = system: S. marcescens W-8; assay: Antibacterial activity (MIC, agar dilution) against S. marcescens W-8*; type: cell-based; conditions: Serratia marcescens
Procedure: (§1) According to Chemotherapy, vol. 29, No. 1, pp. 76-79 (1981), bacterium was cultured in peptone broth manufactured by Eiken Kagaku K.K. at 37° C. for 20 hours to prepare a bacterial solution of 10^8 cells/ml, and one loopful of the bacterial solution was inoculated into Heart Infusion agar medium (manufactured by Eiken Kagaku K.K.) containing a drug, cultured at 37° C. for 20 hours, after which growth of bacterium was observed. The minimum concentration at which the growth of bacterium was prevented was indicated as MIC (μg/ml).
(§2) *means that β-lactamaseproducing bacteria.

[2] = system: E. coli TK-3; assay: Antibacterial activity (MIC, agar dilution) against E. coli TK-3*; type: cell-based; conditions: Escherichia coli
Procedure: as §1, §2

[3] = W8, S. marcescens W-8* (β-lactamase-producing bacteria), Heart Infusion agar, 37° C., 20 hours, one loopful of 10^8 cells/ml, read-out: MIC
[4] = TK3, E. coli TK-3* (β-lactamase-producing bacteria), Heart Infusion agar, 37° C., 20 hours, one loopful of 10^8 cells/ml, read-out: MIC

| MIC [1, 3] | MIC [2, 4] | SMILES | MIC ([1]; W8, 20 h) | MIC ([2]; TK3, 20 h) |
| --- | --- | --- | --- | --- |
| 0.1 mg/L (≈ 0.158 µM) | 0.1 mg/L (≈ 0.158 µM) | O=C(O)C=CC=NN1CCN([C@]2(C(=O)O)CN3C(=O)[C@@H](NC(=O)C(c4cc(O)c(O)cc4Cl)S(=O)(=O)O)[C@H]3S2)C1=O (some centres unmarked) [compound 48] | – | – |
| – | – | C=CC=NN1CCN([C@]2(C(=O)O)CN3C(=O)[C@@H](NC(=O)C(c4cc(O)c(O)cc4Cl)S(=O)(=O)O)[C@H]3S2)C1=O (some centres unmarked) [compound 49] | ≤ 0.05 mg/L | ≤ 0.05 mg/L |
| > 200 mg/L | > 200 mg/L | CCN1CCN(C(=O)N[C@@H](C(=O)N[C@@H]2C(=O)N3C[C@@](C(=O)O)(N4CCN(C)C4=O)S[C@H]23)c2ccccc2)C(=O)C1=O [compound 51, Sodium salt of (3R,5R,6R)3-carboxy-6-[D-α-(4-ethyl-2,3-dioxo-1-piperazinecarboxamio)-α-phenylacetamido]-3-(3-methyl-2-oxoimidazolidin-1-yl)-7-oxo-4-tha-1-azabicyclo[3.2.0]heptane, reference compound] | – | – |

| SMILES | MIC [1, 3] | MIC [2, 4] | MIC ([1]; W8, 20 h) | MIC ([2]; TK3, 20 h) |
| --- | --- | --- | --- | --- |
| O=C(O)C(C(=O)N[C@@H]1C(=O)N2C[C@@](C(=O)O)(N3CCN(N=C4C=CCC4)C3=O)S[C@H]12)c1ccccc1 (some centres unmarked) [compound 50] | 0.1 mg/L (≈ 0.195 µM) | – | – | 0.39 mg/L (≈ 0.759 µM) |
